{
  "source": "ChEMBL document CHEMBL1649140",
  "about": "“Accelerated metabolism of voriconazole and its partial reversal by cimetidine” (Antimicrob Agents Chemother, 2009)",
  "key": {"[1]": {"assay": "Cmin in patient with invasive pulmonary aspergillosis at 9.2 mg/kg, iv administered every 12 hrs measured after 8 days", "type": "ADME, organism-based", "set-up": "dose 9.2 mg/kg, route intravenous", "conditions": "human, in vivo, read-out: Cmin"}, "[2]": {"system": "Aspergillus ustus", "assay": "Antifungal activity against Aspergillus ustus", "type": "functional"}},
  "data": [
    {"smiles": "C[C@@H](c1ncncc1F)[C@](O)(Cn1cncn1)c1ccc(F)cc1F", "note": "[VORICONAZOLE]", "values": [
      {"measurement": "concentration at 192 h", "setting": "[1]", "result": 1170, "unit": "ng/mL"},
      {"measurement": "MIC", "setting": "[2]", "result": 4, "unit": "µg/mL"}
    ]}
  ]
}
